Results reported in ChEMBL document CHEMBL5500400, “Design and Discovery of a Potent and Selective Inhibitor of Integrin αvβ1” (J Med Chem, 2024).
pIC50: −log10 of the molar value.

Legend:
[1] = molecular target: T1, Integrin alpha-V/beta-3 (Homo sapiens, UniProt P05106+P06756); assay: Inhibition of recombinant human Integrin alphaVbeta3 using TMB as substrate incubated for 2 hrs in presence of vitronectin by ELISA; assay type: protein-complex assay
[2] = molecular target: T2, Integrin alpha-V/beta-8 (Homo sapiens, UniProt P06756+P26012); assay: Inhibition of recombinant human Integrin alphaVbeta8 using TMB as substrate incubated for 2 hrs in presence of LAP by ELISA; assay type: protein-complex assay
[3] = molecular target: Integrin alpha-V/beta-5 (Homo sapiens, UniProt P06756+P18084); assay: Inhibition of recombinant human Integrin alphaVbeta5 using TMB as substrate incubated for 2 hrs in presence of fibronectin by ELISA; assay type: protein-complex assay
[4] = molecular target: T3, Integrin alpha-5/beta-1 (Homo sapiens, UniProt P05556+P08648); assay: Inhibition of recombinant human Integrin alpha5beta1 using TMB as substrate incubated for 2 hrs in presence of fibronectin by ELISA; assay type: protein-complex assay
T3 sequence (P05556 21-798 limits assumed): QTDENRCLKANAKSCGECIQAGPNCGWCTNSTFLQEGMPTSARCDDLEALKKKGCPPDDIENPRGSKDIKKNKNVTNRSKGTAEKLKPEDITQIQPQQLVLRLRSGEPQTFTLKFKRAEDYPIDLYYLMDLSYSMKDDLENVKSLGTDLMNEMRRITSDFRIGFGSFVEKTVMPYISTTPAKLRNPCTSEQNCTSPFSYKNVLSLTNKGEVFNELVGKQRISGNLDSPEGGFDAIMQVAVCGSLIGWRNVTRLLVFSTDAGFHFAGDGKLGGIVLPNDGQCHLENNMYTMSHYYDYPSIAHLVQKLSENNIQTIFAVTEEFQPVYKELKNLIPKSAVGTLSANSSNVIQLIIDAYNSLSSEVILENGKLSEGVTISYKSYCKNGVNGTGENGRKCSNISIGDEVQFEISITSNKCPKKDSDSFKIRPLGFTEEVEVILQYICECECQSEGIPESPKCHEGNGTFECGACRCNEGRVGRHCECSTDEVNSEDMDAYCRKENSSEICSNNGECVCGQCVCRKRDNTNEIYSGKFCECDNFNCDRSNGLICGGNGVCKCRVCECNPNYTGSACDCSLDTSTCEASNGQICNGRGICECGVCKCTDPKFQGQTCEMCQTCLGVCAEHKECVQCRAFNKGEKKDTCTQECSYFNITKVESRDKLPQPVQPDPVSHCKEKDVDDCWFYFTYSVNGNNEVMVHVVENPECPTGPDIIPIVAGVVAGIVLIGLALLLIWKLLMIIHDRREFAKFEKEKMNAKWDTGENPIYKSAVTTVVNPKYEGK
T3 sequence (P08648 42-894 limits assumed): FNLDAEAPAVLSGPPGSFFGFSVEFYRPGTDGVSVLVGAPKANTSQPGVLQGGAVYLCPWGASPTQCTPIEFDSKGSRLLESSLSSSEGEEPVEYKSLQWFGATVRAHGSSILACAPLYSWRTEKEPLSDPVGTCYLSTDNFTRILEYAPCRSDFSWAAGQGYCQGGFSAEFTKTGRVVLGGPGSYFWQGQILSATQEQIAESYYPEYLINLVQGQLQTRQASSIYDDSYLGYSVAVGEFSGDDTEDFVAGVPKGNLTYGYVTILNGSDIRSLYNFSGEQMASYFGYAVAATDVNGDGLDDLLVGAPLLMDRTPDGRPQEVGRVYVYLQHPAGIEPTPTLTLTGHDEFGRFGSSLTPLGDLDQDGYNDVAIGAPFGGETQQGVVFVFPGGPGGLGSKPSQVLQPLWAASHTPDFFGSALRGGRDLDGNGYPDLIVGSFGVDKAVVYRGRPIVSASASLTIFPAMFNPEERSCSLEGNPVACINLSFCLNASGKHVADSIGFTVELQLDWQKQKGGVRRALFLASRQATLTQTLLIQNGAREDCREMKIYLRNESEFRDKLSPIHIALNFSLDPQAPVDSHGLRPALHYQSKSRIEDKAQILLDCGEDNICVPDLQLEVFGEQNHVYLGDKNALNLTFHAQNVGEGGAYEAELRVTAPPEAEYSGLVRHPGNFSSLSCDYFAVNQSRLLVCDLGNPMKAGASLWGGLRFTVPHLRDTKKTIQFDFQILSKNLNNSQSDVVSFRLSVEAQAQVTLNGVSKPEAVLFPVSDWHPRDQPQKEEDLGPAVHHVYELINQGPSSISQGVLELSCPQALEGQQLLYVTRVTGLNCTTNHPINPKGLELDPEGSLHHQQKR
T3 sequence (P08648 895-1049 limits assumed): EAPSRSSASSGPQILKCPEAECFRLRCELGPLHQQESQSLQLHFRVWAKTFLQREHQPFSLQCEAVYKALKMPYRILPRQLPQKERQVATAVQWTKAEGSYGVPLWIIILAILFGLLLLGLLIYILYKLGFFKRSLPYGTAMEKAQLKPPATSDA

[5] = molecular target: T4, Integrin alpha-4/beta-1 (Homo sapiens, UniProt P05556+P13612); assay: Inhibition of recombinant human Integrin alpha4beta1 using TMB as substrate incubated for 2 hrs in presence of VCAM-1 by ELISA; assay type: protein-complex assay
T4 sequence (P05556 whole entry): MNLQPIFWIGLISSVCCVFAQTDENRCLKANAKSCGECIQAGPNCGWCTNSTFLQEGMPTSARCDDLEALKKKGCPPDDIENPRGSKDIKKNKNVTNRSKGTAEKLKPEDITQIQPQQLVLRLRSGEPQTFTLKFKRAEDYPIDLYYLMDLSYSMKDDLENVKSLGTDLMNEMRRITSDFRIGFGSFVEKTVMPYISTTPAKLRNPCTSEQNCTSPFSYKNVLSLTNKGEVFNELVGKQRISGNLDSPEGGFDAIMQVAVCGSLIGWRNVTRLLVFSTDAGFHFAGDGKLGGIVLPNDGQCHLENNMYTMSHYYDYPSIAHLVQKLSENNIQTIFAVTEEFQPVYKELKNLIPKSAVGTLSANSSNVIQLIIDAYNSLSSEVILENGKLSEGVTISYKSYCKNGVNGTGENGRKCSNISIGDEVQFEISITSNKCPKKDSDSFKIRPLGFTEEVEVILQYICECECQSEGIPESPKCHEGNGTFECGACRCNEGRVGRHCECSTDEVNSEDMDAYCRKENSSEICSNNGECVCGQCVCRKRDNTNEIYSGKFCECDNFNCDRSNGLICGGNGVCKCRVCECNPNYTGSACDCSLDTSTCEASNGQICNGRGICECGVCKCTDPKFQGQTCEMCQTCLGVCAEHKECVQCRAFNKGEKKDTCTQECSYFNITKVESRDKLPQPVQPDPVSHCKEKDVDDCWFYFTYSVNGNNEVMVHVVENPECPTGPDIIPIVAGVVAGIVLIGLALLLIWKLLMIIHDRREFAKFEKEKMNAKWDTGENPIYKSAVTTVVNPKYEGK
T4 sequence (P13612 whole entry): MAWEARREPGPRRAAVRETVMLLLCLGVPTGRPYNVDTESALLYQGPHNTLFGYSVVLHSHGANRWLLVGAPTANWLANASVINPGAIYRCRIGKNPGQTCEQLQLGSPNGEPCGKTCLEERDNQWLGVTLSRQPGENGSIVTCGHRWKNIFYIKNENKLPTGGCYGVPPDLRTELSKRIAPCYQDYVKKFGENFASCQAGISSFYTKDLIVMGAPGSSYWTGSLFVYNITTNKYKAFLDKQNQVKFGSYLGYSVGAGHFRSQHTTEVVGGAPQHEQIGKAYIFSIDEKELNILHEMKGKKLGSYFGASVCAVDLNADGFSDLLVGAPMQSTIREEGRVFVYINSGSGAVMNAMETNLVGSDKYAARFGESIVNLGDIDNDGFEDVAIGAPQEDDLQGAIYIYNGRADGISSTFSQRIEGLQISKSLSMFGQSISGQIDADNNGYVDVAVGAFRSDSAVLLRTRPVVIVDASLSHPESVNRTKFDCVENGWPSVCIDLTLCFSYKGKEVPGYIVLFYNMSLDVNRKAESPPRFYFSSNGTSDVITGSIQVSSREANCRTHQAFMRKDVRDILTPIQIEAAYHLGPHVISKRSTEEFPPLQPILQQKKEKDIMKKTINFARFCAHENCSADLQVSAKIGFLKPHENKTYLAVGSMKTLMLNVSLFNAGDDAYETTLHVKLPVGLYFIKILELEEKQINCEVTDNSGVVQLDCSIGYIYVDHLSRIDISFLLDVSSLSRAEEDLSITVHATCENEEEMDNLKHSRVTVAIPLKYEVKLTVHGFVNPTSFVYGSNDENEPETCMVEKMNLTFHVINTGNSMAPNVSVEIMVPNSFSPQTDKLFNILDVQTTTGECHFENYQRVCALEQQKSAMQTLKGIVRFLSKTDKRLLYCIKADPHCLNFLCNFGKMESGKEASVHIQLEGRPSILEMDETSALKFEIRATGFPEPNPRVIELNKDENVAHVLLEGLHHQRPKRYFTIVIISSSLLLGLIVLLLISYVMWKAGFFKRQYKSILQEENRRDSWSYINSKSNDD

[6] = molecular target: T5, Integrin alpha-V/beta-1 (Homo sapiens, UniProt P05556+P06756); assay: Inhibition of recombinant human Integrin alphaVbeta1 using TMB as substrate incubated for 2 hrs in presence of fibronectin by ELISA; assay type: protein-complex assay
T5 sequence (P05556 21-798 limits assumed): as the sequence (P05556 21-798 limits assumed) above
T5 sequence (P06756 31-889 limits assumed): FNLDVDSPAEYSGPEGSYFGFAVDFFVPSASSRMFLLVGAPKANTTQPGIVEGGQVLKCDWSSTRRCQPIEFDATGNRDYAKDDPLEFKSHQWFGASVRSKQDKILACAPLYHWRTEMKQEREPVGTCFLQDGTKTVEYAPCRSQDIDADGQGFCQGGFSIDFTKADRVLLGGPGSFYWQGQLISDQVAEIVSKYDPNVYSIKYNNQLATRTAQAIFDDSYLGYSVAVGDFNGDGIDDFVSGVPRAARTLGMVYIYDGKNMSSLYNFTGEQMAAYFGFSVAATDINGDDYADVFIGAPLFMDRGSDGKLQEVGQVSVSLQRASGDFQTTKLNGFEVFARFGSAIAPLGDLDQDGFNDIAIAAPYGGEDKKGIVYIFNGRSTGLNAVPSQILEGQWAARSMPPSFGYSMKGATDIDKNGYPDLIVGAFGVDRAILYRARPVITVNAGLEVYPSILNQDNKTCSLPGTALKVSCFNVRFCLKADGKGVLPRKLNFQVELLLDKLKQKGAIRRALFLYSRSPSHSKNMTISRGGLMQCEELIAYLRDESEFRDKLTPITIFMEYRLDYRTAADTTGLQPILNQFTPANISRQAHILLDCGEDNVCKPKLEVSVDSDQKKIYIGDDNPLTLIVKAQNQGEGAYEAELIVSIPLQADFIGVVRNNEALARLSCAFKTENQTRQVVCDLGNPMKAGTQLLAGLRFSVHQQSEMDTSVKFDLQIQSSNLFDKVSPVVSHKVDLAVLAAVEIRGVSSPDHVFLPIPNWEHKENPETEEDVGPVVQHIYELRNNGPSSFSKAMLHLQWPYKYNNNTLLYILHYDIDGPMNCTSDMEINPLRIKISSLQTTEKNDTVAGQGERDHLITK
T5 sequence (P06756 891-1048 limits assumed): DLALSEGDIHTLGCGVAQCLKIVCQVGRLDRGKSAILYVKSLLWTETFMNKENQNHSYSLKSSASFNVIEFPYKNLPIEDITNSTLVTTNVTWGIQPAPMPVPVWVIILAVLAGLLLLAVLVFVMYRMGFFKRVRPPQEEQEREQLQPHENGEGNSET

[7] = molecular target: T6, Integrin alpha-V/beta-6 (Homo sapiens, UniProt P06756+P18564); assay: Inhibition of recombinant human Integrin alphaVbeta6 using TMB as substrate incubated for 2 hrs in presence of LAP by ELISA; assay type: protein-complex assay
[8] = Apparent permeability across basolateral to apical side in dog MDCK-MDR1 cells incubated for 60 mins by HPLC analysis; assay type: ADME, cell-based, Canis lupus familiaris
[9] = Apparent permeability across apical to basolateral side in dog MDCK-MDR1 cells incubated for 60 mins by HPLC analysis; assay type: ADME, cell-based, Canis lupus familiaris
[10] = molecular target: T5, Integrin alpha-V/beta-1; assay: Inhibition of recombinant human Integrin alphaVbeta1 mediated cellular adhesion expressed in CHO-B2 cell incubated for 24 hrs in presence of Ca2+ and Mg2+ by real-time cell analysis; assay type: cell-based
[11] = molecular target: Integrin alpha-8/beta-1 (Homo sapiens, UniProt P05556+P53708); assay: Inhibition of recombinant human Integrin alpha8beta1 mediated cellular adhesion expressed in HEK cells incubated for 24 hrs in presence of Ca2+ and Mg2+ by real-time cell analysis; assay type: cell-based
[12] = molecular target: T5, Integrin alpha-V/beta-1; assay: Inhibition of human Integrin alphaVbeta1 expressed in CHO-B2 cell cocultured with TGF-beta expressing Mv1Lu cells assessed as inhibition of integrin alphaVbeta1 mediated TGF-beta transactivation by luciferase assay; assay type: cell-based
[13] = molecular target: T3, Integrin alpha-5/beta-1; assay: Inhibition of Integrin alpha5beta1 mediated cellular adhesion in human HCT-116 cells incubated for 24 hrs in presence of Ca2+ and Mg2+ by real-time cell analysis; assay type: cell-based
[14] = molecular target: T1, Integrin alpha-V/beta-3; assay: Inhibition of recombinant human Integrin alphaVbeta3 mediated cellular adhesion expressed in HEK cells incubated for 24 hrs in presence of Ca2+ and Mg2+ by real-time cell analysis; assay type: cell-based
[15] = molecular target: T4, Integrin alpha-4/beta-1; assay: Inhibition of Integrin alpha4beta1 mediated cellular adhesion in human Jurkat cells incubated for 24 hrs in presence of Ca2+ and Mg2+ by real-time cell analysis; assay type: cell-based
[16] = molecular target: T2, Integrin alpha-V/beta-8; assay: Inhibition of Integrin alphaVbeta8 in human SNB-19 cells cocultured with TGF-beta expressing Mv1Lu cells assessed as inhibition of integrin alphaVbeta8 mediated TGF-beta transactivation by luciferase assay; assay type: cell-based
[17] = molecular target: T6, Integrin alpha-V/beta-6; assay: Inhibition of human Integrin alphaVbeta6 expressed in SW480 cells cocultured with TGF-beta expressing Mv1Lu cells assessed as inhibition of integrin alphaVbeta6 mediated TGF-beta transactivation by luciferase assay; assay type: cell-based

Compound	pIC50 [1]	pIC50 [2]	pIC50 [3]	pIC50 [4]	pIC50 [5]	pIC50 [6]	pIC50 [7]	other results
O=C(Cn1c(=O)[nH]c2ncccc21)NC[C@H](NC(=O)c1c(F)cccc1Cl)C(=O)O	< 5.00	5.10	< 5.00	6.40	5.60	8.30	< 5.00	–
O=C(NC(CNc1ccccc1)C(=O)O)c1c(Cl)cccc1Cl (stereo not given)	< 5.00	< 5.00	< 5.00	< 5.00	–	6.70	< 5.00	–
Cc1cnc2[nH]c(=O)n(CC(=O)NC[C@H](NC(=O)c3c(Cl)ccc(C)c3F)C(=O)O)c2c1	–	–	–	–	–	7.10	–	Papp B→A at 1 h [8]: 0.3 ×10⁻⁶ cm/s; Papp A→B at 1 h [9]: 0.4 ×10⁻⁶ cm/s
O=C(Cn1c(=O)[nH]c2ccccc21)NC[C@H](NC(=O)c1c(Cl)cccc1Cl)C(=O)O	< 5.00	< 5.00	< 5.00	5.90	5.70	7.70	< 5.00	–
O=C(CN1C(=O)Cc2ccccc21)NC[C@H](NC(=O)c1ccccc1Cl)C(=O)O	–	–	–	–	–	< 5.00	–	–
Cc1cc(C#N)cc(C)c1C(=O)N[C@@H](CNC(=O)Cn1c(=O)[nH]c2ncccc21)C(=O)O	< 5.00	< 5.00	< 5.00	5.60	5.30	8.00	< 5.00	–
Cc1nc2ccccc2n1CC(=O)NC[C@H](NC(=O)c1ccccc1Cl)C(=O)O	–	–	–	–	–	< 5.00	–	–
O=C(Cn1c(=O)[nH]c2ncccc21)NC[C@H](NC(=O)c1c(Cl)cccc1Cl)C(=O)O	< 5.00	5.20	< 5.00	6.40	5.50	8.40	< 5.00	–
Cc1cc2[nH]c(=O)n(CC(=O)NC[C@H](NC(=O)c3c(Cl)ccc(C)c3F)C(=O)O)c2cc1C	–	–	–	–	–	8.80	–	Papp B→A at 1 h [8]: 0.6 ×10⁻⁶ cm/s; Papp A→B at 1 h [9]: 0.8 ×10⁻⁶ cm/s
Cc1ccc(Cl)c(C(=O)N[C@@H](CNC(=O)Cn2c(=O)[nH]c3ncncc32)C(=O)O)c1F	–	–	–	–	–	9.20	–	Papp B→A at 1 h [8]: 0.7 ×10⁻⁶ cm/s; Papp A→B at 1 h [9]: 0.9 ×10⁻⁶ cm/s
COc1ccc(Cl)c(C(=O)N[C@@H](CNC(=O)Cn2c(=O)[nH]c3ccncc32)C(=O)O)c1F	–	–	–	–	–	9.20	–	Papp B→A at 1 h [8]: 1.2 ×10⁻⁶ cm/s; Papp A→B at 1 h [9]: 1.2 ×10⁻⁶ cm/s
COc1ccc(Cl)c(C(=O)N[C@@H](CNC(=O)Cn2c(=O)[nH]c3ncccc32)C(=O)O)c1F	< 5.00	5.80	< 5.00	6.60	5.80	9.20	5.50	–
O=C(Cn1cnc2ccccc21)NC[C@H](NC(=O)c1ccccc1Cl)C(=O)O	–	–	–	–	–	< 5.00	–	–
Cc1ccc(Cl)c(C(=O)N[C@@H](CNC(=O)Cn2c(=O)[nH]c3ncccc32)C(=O)O)c1F	5.30	5.70	5.40	7.20	5.80	9.20	5.40	–
O=C(NC(Cc1ccccc1)C(=O)O)c1ccc(Cl)cc1Cl (stereo not given)	< 4.50	< 4.50	< 4.50	< 4.50	–	5.30	< 4.50	–
COc1cc(F)c(C(=O)N[C@@H](CNC(=O)Cn2c(=O)[nH]c3ncccc32)C(=O)O)c(Cl)c1	< 5.00	5.40	< 5.00	6.80	5.30	8.90	5.20	–
O=C(CN1C(=O)NCc2ccccc21)NC[C@H](NC(=O)c1ccccc1Cl)C(=O)O	–	–	–	–	–	6.50	–	–
Cc1ccc(Cl)c(C(=O)N[C@@H](CNC(=O)Cn2c(=O)[nH]c3cc(F)c(F)cc32)C(=O)O)c1F	–	–	–	–	–	9.00	–	Papp B→A at 1 h [8]: 0.2 ×10⁻⁶ cm/s; Papp A→B at 1 h [9]: 1.2 ×10⁻⁶ cm/s
O=C(CN1Cc2ccccc2NC1=O)NC[C@H](NC(=O)c1ccccc1Cl)C(=O)O	–	–	–	–	–	6.40	–	–
O=C(Cn1c(=O)[nH]c2ncccc21)NC[C@H](NC(=O)c1ccccc1Cl)C(=O)O	< 5.00	< 5.00	< 5.00	6.20	5.50	7.90	6.30	–
O=C(CCCCc1ccc2c(n1)NCCC2)NCC(NC(=O)c1c(Cl)cccc1Cl)C(=O)O (racemic)	9.00	> 9.80	–	–	5.50	9.70	> 9.80	–
N=C(N)NCCCCC(=O)Nc1ccc(C[C@H](NC(=O)[C@@H]2CCCN2S(=O)(=O)c2ccccc2)C(=O)O)cc1	–	–	–	–	–	–	–	pIC50 [10]: 7.90; pIC50 [11]: 5.23; pIC50 [12]: 8.00; pIC50 [13]: 6.00; pIC50 [14]: < 5.00; pIC50 [15]: 7.46; pIC50 [16]: 5.76; pIC50 [17]: 6.50
O=C(Cn1c(=O)[nH]c2ncccc21)NC[C@H](NC(=O)c1c(F)cc(-c2ccccc2)cc1Cl)C(=O)O	< 5.00	5.20	< 5.00	6.20	< 5.00	7.50	< 5.00	–
O=C(NC(CNc1ccc(N2CCNC2=O)cc1)C(=O)O)c1c(Cl)cccc1Cl (racemic)	5.40	5.10	5.90	6.20	6.70	6.70	< 5.00	–
